Measured values taken from ChEMBL document CHEMBL1157539, “Thousands of chemical starting points for antimalarial lead identification” (Nature, 2010).

What follows are compounds tested on Plasmodium falciparum (assay: GSK_TCMDC: Inhibition of Plasmodium falciparum 3D7 in whole erythrocytes, using parasite LDH activity as an index of growth.). Conditions: Plasmodium falciparum, 3D7.
Format: functional, organism-based

| SMILES | XC50 [nM] |
| --- | --- |
| CON=Cc1ccn(-c2ccc(O)c3c2C[C@H]2C[C@H]4[C@H](N(C)C)C(O)=C(C(N)=O)C(=O)[C@@]4(O)C(O)=C2C3=O)c1 | 773 |
| CO/C(=C\C=C\c1cc2cc(Cl)c(Cl)cc2[nH]1)C(=O)Nc1ccc(NCCN(C)C)nc1 | 765 |
| CSc1sc(NC(=O)Nc2cccc(C(F)(F)F)c2)cc1C#N | 912 |
| CN(C)CCNc1cc(-c2cccnc2)nc(-c2ccncc2)n1 | 596 |
| Cc1ccc2[nH]c3c(NCCN(C)C)ncnc3c2c1 | 838 |
| FC(F)(F)c1ccc2[nH]c(-c3ccc(-c4cccc(CNCc5ccccc5)c4)cc3)nc2c1 | 222 |
| Cc1cc(C2CCN(CCCCNC(=O)c3ccc(NC(=O)c4ccc(Cl)cc4)cc3)CC2)c(C)cc1OCc1nccn1C | 835 |
| CC(=O)Nc1cccc(C(=O)Nc2ccc(-c3cccc(-c4nc5cc(F)ccc5[nH]4)c3)cc2)c1 | 633 |
| Nc1ncc(-c2cn[nH]c2)cc1-c1nc2ccc(Cl)cc2[nH]1 | 799 |
| Nc1nc2c(ncn2COC(COCc2ccccc2)COCc2ccccc2)c(=O)[nH]1.Nc1nc2ncn(COC(COCc3ccccc3)COCc3ccccc3)c2c(=O)[nH]1 | 714 |
| Cc1nc(C)c(CC(=O)Nc2cccc(-c3cccc(-c4nc5cccc(C)c5[nH]4)c3)c2)s1 | 755 |
| COc1ccc2nccc([C@@H](O)CN3CCC(NC/C=C/c4cccnc4)CC3)c2c1 | 622 |
| CCc1cn2c3c(cc(C(=O)N[C@@H](Cc4cccc(F)c4)[C@H](O)CNC4CCCCC4)cc13)N(C)S(=O)(=O)CC2 | 29.7 |
| CS(=O)(=O)c1ccc(CCNCc2ccc(-c3ccc(CN(C(=O)C4CC(=O)c5ccccc54)C4CCN(Cc5ccccc5)CC4)cc3)nc2)cc1 (stereo not given) | 592 |
| O=C(/C=C/c1ccccc1Cl)Nc1ccc(Br)c(OCCN2CCCCC2)c1 | 168 |
| c1ccc2c(NCCCCCCNc3ccnc4ccccc34)ccnc2c1 | 191 |
| O=C(Nc1ccc2[nH]c(-c3ccccc3)nc2c1)c1cc(-c2ccc3c(c2)OCCO3)n[nH]1 | 769 |
| COc1ccc(NC(=O)/C=C/c2ccc(-c3ccccc3)cc2)cc1N1CCN(C)CC1 | 906 |
| CCN(CC)CCN(Cc1ccc(-c2ccc(C(F)(F)F)cc2)cc1)C(=O)Cn1c(CCc2cccc(F)c2F)cc(=O)cc1-c1ccccc1 | 778 |
| O=C(Nc1ccccc1O)C1CCN(c2ncnc3cc(-c4ccc(F)cc4)sc23)CC1 | 874 |
| FC(F)(F)c1cccc(Nc2nc3ccccc3nc2Nc2cccc(C(F)(F)F)c2)c1 | 137 |
| O=C(Nc1cccc(Cl)c1Cl)N1CCc2cc3nccc(N4CCN5CCC[C@H]5C4)c3cc21 | 1040 |
| COc1cc2nc(C)nc(Nc3ccc(Cc4ccccc4)cc3)c2cc1OC | 730 |
| CC(C)(C)CC(C)(C)c1ccc(O)c(C(=O)Nc2cccc([N+](=O)[O-])c2)c1 | 589 |

| SMILES | XC50 [nM] |
| --- | --- |
| CCCCn1c(Sc2ccc(C#N)c([N+](=O)[O-])c2)nnc1-c1ccc(OC)cc1 | 1030 |
| O=C(NCc1ccc(Cl)c(Cl)c1)c1ccc(C2CCN(Cc3ccc4[nH]cnc4c3)CC2)cc1 | 957 |
| COc1cc(/C=N/Nc2nc(Nc3ccccc3)nc(Nc3ccccc3)n2)ccc1OCc1ccccc1[N+](=O)[O-] | 806 |
| C[C@H](Cc1ccc(Oc2ccc(C[C@@H](C)NC[C@H](O)c3cccc(Cl)c3)cc2)cc1)NC[C@H](O)c1cccc(Cl)c1 | 560 |
| O=C(Nc1ccc(Cl)cc1)N[C@H]1CCN(Cc2ccc(OCCCN3CCCCC3)cc2)C1 | 671 |
| O=C(NCCCCN1CCN(c2ccc3c(c2)CCC3)CC1)c1ccc(NC(=O)c2ccc(Cl)cc2)cc1 | 677 |
| CC[C@H](N/C(=N\c1cccc(Cl)c1Cl)Nc1ccc(C#N)cc1O)c1ccccc1 | 815 |
| O=C(Nc1cccc(Cl)c1Cl)NC1CCN(Cc2cccc(O)c2)CC1 | 799 |
| Cc1cc(C)c2nc(N3CCC(C(=O)NCCCN4CCC(N5CCCCC5)CC4)CC3)sc2c1 | 838 |
| c1ccc(CNCc2ccc(-c3cccc(-c4nc5ccccc5[nH]4)c3)cc2)cc1 | 422 |
| OCCNc1nc(Nc2cccc(O)c2)nc2ccccc12 | 389 |
| O=C(NC1c2ccccc2Oc2ccccc21)c1ccccc1O | 844 |
| CN1CCN(CC(=O)Nc2cccc(-c3cccc(-c4nc5cc(F)ccc5[nH]4)c3)c2)CC1 | 741 |
| COc1cc2nc(NCc3ccc(S(N)(=O)=O)cc3)nc(Nc3ccc(Oc4ccccc4)cc3)c2cc1OC | 445 |
| CC(C)(C)c1cc2cc(Nc3ccnc4cc(-c5nccs5)ccc34)ccc2[nH]1 | 441 |
| COc1cc(NCCCNCc2cn(Cc3cc(Br)cc(Br)c3)c3ccccc23)nc2ccccc12 | 185 |
| CCOC(=O)N[C@@H]1CN[C@@H](C#Cc2cc3c(Nc4ccc(OCc5cccc(F)c5)c(Cl)c4)ncnc3s2)C1 | 1080 |
| COc1cc2nc(N3CCC(CNC(=O)c4cccc5cc[nH]c45)CC3)nc(N)c2cc1OC | 1580 |
| CCC(=O)N1CCc2cc(Br)cc(S(=O)(=O)N3CC(C)CC(C)C3)c21 (stereo not given) | 932 |
| CCOc1cc(C(=O)NC2CCN(Cc3ccccc3)CC2)ccc1-c1nc2cc(Cl)ccc2[nH]1 | 430 |
| CS(=O)(=O)CCNCc1cccc(-c2ccc3c(Nc4ccc(Oc5cccnc5)cc4)ccnc3c2)c1 | 142 |
| COc1ccccc1CC1CCCN(C2CCC(NC(=O)c3cc4ccccc4[nH]3)CC2)C1 (stereo not given) | 842 |
| COc1nc2c(CCN3CC[C@H](NCc4cc(C#N)c5c(c4)CCO5)[C@H](O)C3)ccnc2cc1F | 350 |
| COc1ccc(CN2CCCN(Cc3cccc(C(=O)Nc4ccc(C)c(F)c4)c3)CC2)cc1 | 1310 |

| SMILES | XC50 [nM] |
| --- | --- |
| S=C(Nc1ccccc1Cl)NC1CCC(CN2CCC(c3c[nH]c4ccccc34)CC2)CC1 (stereo not given) | 1050 |
| CCN(Cc1ccccc1)C1CCN(Cc2cc(Br)ccc2O)CC1 | 823 |
| COc1ccc(NC(=O)[C@H](CC(C)C)Nc2cc(C)nc(NCc3cccc(C)c3)n2)cc1 | 1020 |
| Cc1[nH]c(C)c(-c2ccc(-c3ccc(Cl)cc3)nc2)c(=O)c1Cl | 106 |
| COc1ccc(NC(=O)CCNc2ccnc(NCCc3ccc(F)cc3)n2)cc1 | 990 |
| CC(C)CCN1CCC(Oc2ccc(NC(=O)c3ccsc3)cc2Cl)CC1 | 1040 |
| COc1cc(OCCCCCCON2C(=N)N=C(N)NC2(C)C)cc(OC)c1OC | 3.2 |
| O=C1C(c2ccccc2)=C(Nc2ccc([N+](=O)[O-])cc2)c2ccccc21 | 871 |
| O=C(/C=C/c1ccc(Cl)c(Cl)c1)NC1CCN(CCNC(=O)c2cccc(Cl)c2)CC1 | 550 |
| Nc1c2c(nc3ccccc13)C(=Cc1ccc(O)cc1)CCC2 | 176 |
| O=C(Nc1cccc(-c2nn3ncccc3c2-c2ccnc(Nc3cccnc3)n2)c1)c1c(F)cccc1F | 528 |
| COc1ccc2nccc([C@@H](O)CN3CCC(NCc4nc5c([N+](=O)[O-])cccc5[nH]4)CC3)c2c1 | 705 |
| CC(=O)Nc1ccc(OCCCCN(Cc2ccccc2C(F)(F)F)c2ccc(C(F)(F)F)c(C#N)c2)c(Cl)c1 | 545 |
| CC(=O)Oc1cc(OCc2ccccc2)c(OC(C)=O)c(OCc2ccccc2)c1 | 407 |
| CC1(C)NC(N)=NC(=N)N1OCCOc1ccc2ccccc2c1 | 3.2 |
| CC(C)CNCc1cccc(-c2ccc(CN(CCCN3CCN(C)CC3)C(=O)/C=C/c3ccccc3)cc2)c1 | 857 |
| CCCN(CC1CC1)c1nc(C)nc2c(-c3ccccc3)cc(C)cc12 | 1020 |
| CCC(CC)(Cc1ccccc1)NC(=O)[C@H](CC(C)C)Nc1ccc(C#N)c2ccccc12 | 913 |
| O=C(NCCc1ccccc1F)c1cc(Br)cc(N2CCN(c3ccncc3)CC2)c1 | 756 |
| Cc1ccc(NC(=O)Nc2ccccc2)cc1-c1ccc(C(=O)Nc2ccncc2)cc1 | 240 |
| CCCCCCCC1CC(CC(=O)Nc2ccnc3ccc(OC)cc23)CN1C(=O)OC(C)(C)C (stereo not given) | 714 |
| N=C(N)Nc1nccc(NCc2ccccc2)n1 | 895 |
| CC(C)n1nc(C(=O)N2CCN(c3ccccc3)CC2)c2ccccc2c1=O | 979 |
| CCCCCCC(C)c1cc(OCCN(CC)CC)c2c(c1)OC(C)(C)C=C2c1ccncc1 (stereo not given) | 1260 |

| SMILES | XC50 [nM] |
| --- | --- |
| Cc1cccc(CNc2nc(C)cc(N[C@@H](Cc3ccccc3)C(=O)NCCOc3ccccc3)n2)c1 | 914 |
| Cc1ccccc1C1CCN(C2CCC(NC(=O)c3cc(-c4ccccc4)oc3C)CC2)CC1 (stereo not given) | 1030 |
| NCC(=O)NC12CC3CC(CC(C3)C1)C2 | 1200 |
| CCCCCN1CCCCC(NS(=O)(=O)c2ccc(C(=O)Nc3cccc(C(F)(F)F)c3)cc2)C1 (stereo not given) | 750 |
| CN1CCN(CCCN(Cc2ccc(-c3cccc(CNCc4ccc5c(c4)OCO5)c3)cc2)C(=O)NCCc2ccccc2)CC1 | 845 |
| O=C(c1ccc(OCCn2ccnc2)cc1)N1CCC(c2ccc(Br)cc2)C1 (stereo not given) | 116 |
| COc1ccc(CCN(C)CCOc2ccc(NC(=O)c3cc(SC)cc4c(=O)c5ccccc5[nH]c34)cc2)cc1OC | 1400 |
| FC(F)(F)COc1ccc(CNCCCCCCNCc2ccc(OCC(F)(F)F)c3ccccc23)c2ccccc12 | 400 |
| CCCN(CCCCNC(=O)c1ccc(-c2cccnc2)cc1)C1CCc2c(O)cccc2C1 (stereo not given) | 1120 |
| CCOc1ccc(C(=O)Nc2ccc(-c3nc4ccccc4[nH]3)cc2)cc1[N+](=O)[O-] | 591 |
| CN(C)c1ccc(C(c2ccc(N(C)C)cc2)c2cc([N+](=O)[O-])ccc2Cl)cc1 | 911 |
| COc1ccc2[nH]c(C)cc(=NN=Cc3ccccc3Cl)c2c1 | 601 |
| CN(Cc1cccc(F)c1)C1CCN(c2cc(NC(=O)c3ccc(F)cc3)ccn2)C1 (stereo not given) | 1230 |
| Cc1nccn1CCNC(=O)CN1CCC2(CCC1=O)CC(=O)c1ccccc1O2 (stereo not given) | 802 |
| Nc1nccc2ccc(-c3ccc(OCc4ccccc4)cc3)cc12 | 222 |
| Cc1ccc(-n2cc(CNCC3CCN(CCO)CC3)c(-c3ccc(F)cc3)n2)cc1 | 2000 |
| CC(=O)Nc1ccc(OCCN(Cc2ccccc2C(F)(F)F)c2ccc(C#N)c(C(F)(F)F)c2)cc1 | 443 |
| c1ccc(COc2ccc(COc3ccc(Cn4ccnc4)cc3)cc2)cc1 | 947 |
| Cc1cc(F)ccc1-c1nc(NCC(O)CNCCc2ccccc2)nc2c1ccc(=O)n2-c1c(F)cccc1F (stereo not given) | 539 |
| CN1CCC(N2CCN(Cc3ccc(-c4cccc(-c5nc6ccccc6[nH]5)c4)cc3)CC2)CC1 | 145 |
| OC(CNc1ccnc(Nc2ccccc2)n1)c1cccc(C(F)(F)F)c1 (stereo not given) | 646 |
| COc1ccc(CCNC(=O)c2cc3c(=O)n4cccc(C)c4nc3n(C)c2=N)cc1 | 762 |
| c1cc(OCCN2CCCC2)ccc1CNC1CCN(CC2CCCCC2)CC1 | 845 |
